Reference: patent US20040151761A1, “Methods and compositions utilizing astaxanthin” (priority 2003, published 2004)
Entries after “also recorded” stand apart in the source; their conditions may differ.

Columns and labels:
[1] = test system: mammary and bladder tumor; conditions: cited from earlier work
[2] = test system: total T, Th, Tc, MHC II and CD21 lymphocyte populations; test: Leukocyte subsets in cats by flow cytometry; type: in vivo, cat
Source text: Leukocyte subset. Blood collected at week 0, 8 and 12 was phenotyped for populations of CD3 (total T), CD4 (Th), CD8 (Tc), MHC II (activated lymphocytes), and CD21 (mature B cells) by flow cytometry (FACSCalibur, Becton Dickenson, San Jose, Calif.) as previously described (Chew et al., 2000).

[3] = test system: Cutaneous delayed-type hypersensitivity (DTH); test: Delayed-type hypersensitivity (skin induration) in cats; type: in vivo, cat
lipid peroxidation = test: Lipid peroxidation in dogs; type: in vivo, dog
[4] = Plasma astaxanthin in dogs fed astaxanthin diets; type: in vivo, dog
Experimental: (§1) Female Beagle dogs (9 to 10 mo old; 8.2±0.2 kg body weight; Covance Research Products Inc., Kalamazoo, Mich.) were randomly assigned (n=14/treatment) to be fed 0, 10, 20, or 40 mg astaxanthin (109 g astaxanthin/kg oleoresin concentrate from Haematococcus pluvialis, astraZanthin™, La Haye Laboratories, Redmond, Wash.) daily for 16 weeks. Astaxanthin was incorporated into a commercial basal diet (The Iams Co., Lewisburg, Ohio.) and fed two times daily (200 g food/d). The diet composition was as follows (g/kg): 85.3 moisture, 275.8 protein, 60.7 ash, 115.0 fat, 9.9 Ca, 9.3 P, 21.3 crude fiber, and 18,914 kJ/kg gross energy; the n-6:n-3 fatty acid ratio was 7.9. Dogs were housed in 2×3 m pens (2 dogs/pen) in a temperature (20 to 22° C.) and light-(14 hour light) controlled facility. Body weight was recorded on week 0, 4, 8, and 16. Blood was collected on wk 0, 6 and 12 for assessing immune function. All dogs were vaccinated (Vanguard 5™, Smithkline Beacham, West Chester, Pa.) twice on week 12 and 14 and blood again taken on week 16 to assess post-vaccination immune responses.

[5] = test system: 8-Hydroxy-2′-deoxyguanosine (8-OHdG); test: Oxidative damage to DNA in dogs (plasma 8-OHdG ELISA); type: in vivo, dog
Experimental: Oxidative damage to DNA. 8-Hydroxy-2′-deoxyguanosine (8-OHdG) was measured in plasma ELISA (BIOXYTECHTM™ 8-OHhdG-EIA Kit, OxisResearch, Portland, Oreg.; sensitivity=0.5 micrograms/L).

mouse splenocytes = conditions: cultured cell assay (Jyonouchi et al.); cited from earlier work
IgG and IgM = test: Plasma IgG and IgM in cats (ELISA); type: in vivo, cat
Experimental: (§2) Female domestic short hair cats (8 to 9 months old; 3.2±0.04 kg body weight; Liberty Farms, Waverly, N.Y.) were randomly assigned (n=14/diet) to be fed 0, 1, 5, or 10 mg astaxanthin (109 g astaxanthin/kg oleoresin concentrate from Haematococcus pluvialis, astraZanthin™, La Haye Laboratories, Redmond, Wash.) daily (based on an average intake of 90 g food/day) for 12 weeks. Astaxanthin was incorporated into a commercial basal diet (The Iams Co., Lewisburg, Ohio.) and fed ad libitum. The diet composition was as follows (g/kg): 63.1 moisture, 350.6 protein, 62.7 ash, 213.6 fat, 10.0 Ca, 7.6 P, and 7.1 crude fiber, 21,707 kJ/kg gross energy; the n-6:n-3 fatty acid ratio was 9.9. Cats were housed in a temperature (20 to 22° C.) and light-controlled (14 hour light) facility and body weights were determined at weeks 0, 4, 8 and 12. Blood was collected at week 0 and 8 to assess immune function. To assess the dietary effects of astaxanthin on immune response after an antigenic challenge, all cats were vaccinated (Felocell™, Pfizer, N.Y.) two times (weeks 8 and 10) and blood was collected at week 12 to measure the same immune parameters.
IgG and IgM. Plasma concentrations of IgG (sheep anti-IgG; sensitivity=16 μg/L) and IgM (goat anti-IgM; sensitivity=31 μg/L) were analyzed by ELISA using a commercial kit (Bethyl Lab., Inc., Montgomery, Tex.).

[6] = test system: total T, Th, Tc, MHC II and CD21 lymphocyte populations; test: Leukocyte subsets in cats by flow cytometry; type: in vivo, cat; conditions: by weeks 8 and 12, generally dose-dependent
[7] = Plasma astaxanthin in cats fed astaxanthin diets; type: in vivo, cat
Experimental: as §2

[8] = test system: peripheral blood mononuclear cell (PBMC); test: Lymphoproliferation in cats (whole blood); type: in vivo, cat
Experimental: Lymphoproliferation. Mitogen-induced peripheral blood mononuclear cell (PBMC) proliferation was assessed by incubating whole blood in the presence of PHA (0.25 and 1.25 mg/L final concentration), con A (0.5 and 2.5 mg/L), and pokeweed mitogen (PWM; 0.025 and 0.125 mg/L) as previously described (Chew et al., 2000). Whole blood was used in order to simulate in vivo conditions. Results are reported as stimulation index (cpm of mitogen-stimulated÷cpm of unstimulated cultures).

C-reactive protein (CRP) = test: Plasma C-reactive protein in dogs; type: in vivo, dog
Experimental: C-Reactive protein. Changes in acute phase proteins were assessed in plasma by measuring the C-reactive protein (CRP) concentrations using horseradish peroxidase-labeled anti-canine CRP in a solid-phase sandwich immunoassay (Tri Delta Diagnostics, Morris Plains, N.J.).

[9] = Body weight of dogs fed astaxanthin; type: in vivo, dog
Experimental: as §1

[10] = post-vaccination week 12, 10 mg

Question: Which results are given for `CC1=C(/C=C/C(C)=C/C=C/C(C)=C/C=C/C=C(C)/C=C/C=C(C)/C=C/C2=C(C)C(=O)C(O)CC2(C)C)C(C)(C)CC(O)C1=O` (stereo not drawn) [astaxanthin, 3,3′-dihydroxy-beta, beta-carotene-4,4′-dione]?
Answer: mammary tumor growth ([1]; rodents (Chew et al., 1999a)): inhibited; bladder tumor growth ([1]; rodents (Tanaka et al., 1994)): inhibited; CD8+ T cytotoxic (Tc) cells averaged ([2]; average over diets): 4.7±0.4; MHC class II population averaged ([2]; average over diets, in % (unit assumed)): 94.1±1.0; population of CD4+ T helper (Th) cells ([2]; by weeks 8 and 12, generally dose-dependent): increased the populations; also recorded: increase in the populations of total T and Th lymphocytes; MHC class II population ([2]; in vivo): did not influence; distribution of CD8+ T cytotoxic (Tc) cells ([2]; in vivo): did not influence; population of B cells ([2]; in vivo): decreased the population of B cells; also recorded: decrease in the B cell population; DTH response with dietary astaxanthin ([3]; after vaccination, wk 12): somewhat diminished; skin induration response to vaccine ([3]; wk 8, 72 h post-injection, cats fed 10 mg): significant enhancement; DTH response to con A ([3]; wk 8, cats fed 5 or 10 mg): higher DTH response to con A at 24 and 48 h; time of maximal skin induration response to vaccine ([3]; wk 8, post-injection): 72 h; DTH response to nonspecific (con A) antigenic challenge ([3]; wk 8, pre-vaccination): stimulated DTH response; also recorded: increased DTH response; DTH response to specific (vaccine) antigenic challenge ([3]; wk 8, pre-vaccination): stimulated DTH response; also recorded: increased DTH response; DTH response to con A ([3]; wk 12): significant only with 1 mg astaxanthin; DTH response to vaccine ([3]; wk 12, cats fed 10 mg): still showed enhanced DTH response to vaccine, but at 24 h after injection; lipid peroxidation (lipid peroxidation): reduced lipid peroxidation; time at which maximal blood concentrations were observed ([4]; all supplemented dogs): ≤ 6 wk; plasma astaxanthin concentration ([4]; supplemented dogs, through week 16): increased in a dose-dependent manner; plasma 8-OHdG concentrations ([5]; dogs fed 40 mg versus lower doses): no further decrease; plasma 8-OHdG production ([5]; supplemented dogs, as with C-reactive protein (post-vaccination)): inhibited the production of 8-OHdG; plasma 8-OHdG concentration ([5]; wk 12): no dietary influence; in vitro antibody response of mouse splenocytes to T-dependent antigens (mouse splenocytes): increase in vitro antibody response; plasma IgG concentration (IgG and IgM; post-vaccination week 12, 5 mg): only those fed 5 mg astaxanthin were significant; plasma IgM concentration (IgG and IgM; post-vaccination week 12, 5 mg): only those fed 5 mg astaxanthin were significant; plasma IgG concentration (IgG and IgM; [10]): still numerically higher; plasma IgM concentration (IgG and IgM; [10]): still numerically higher; plasma IgG concentration (IgG and IgM; week 8, 10 mg): higher; plasma IgM concentration (IgG and IgM; week 8, 10 mg): higher; population of CD5+ total T cells [6]: increased the populations; also recorded: increase in the populations of total T and Th lymphocytes; plasma astaxanthin concentrations ([7]; at week 8): rapid initial increase; plasma astaxanthin concentrations ([7]; cats fed 1, 5 or 10 mg daily): generally a dose-dependent increase; also recorded: dose-related increase in plasma astaxanthin; plasma astaxanthin ([7]; week 8 through week 12): continued to increase, albeit more gradually; proliferative response to ConA ([8]; 1 mg, post-vaccination week 12): higher proliferative response; proliferative response to PHA ([8]; 1 mg, post-vaccination week 12): higher proliferative response; proliferative response to PWM ([8]; 1 mg, post-vaccination week 12): higher proliferative response; mitogen-induced PBMC proliferation ([8]; by week 8): did not influence; plasma C-reactive protein concentrations (C-reactive protein (CRP); post-vaccination, week 16): decreased plasma C-reactive protein concentrations; also recorded: lower concentrations of circulating CRP; plasma CRP concentrations between diets (C-reactive protein (CRP); through week 12): similar; plasma CRP concentration averaged (C-reactive protein (CRP); through week 12, average over diets): 4.48 mg/L; influence of diet on body weight ([9]; dogs fed 0, 10, 20 or 40 mg daily, throughout 16 wk study): did not significantly influence body weight; body weight averaged ([9]; wk 16, average over all diets): 8.57 ± 0.11 kg
